Assays:
Format in all cases: cell-based
E. Coli K-12 = experiment: Susceptibility test: individual MIC and check point FIC; design: MICCOE: unit not given beside the values; conditions: for MICantibiotic: antibiotic alone, unit assumed; for FIC: smallest FIC
Procedure: (§1) FIC was calculated based on the toxicity of each molecule on E. coli as well as their combined toxicity on E. coli. The equation for calculation is as follows:
(§2) FIC═[COE]/MICCOE+[Antibiotic]/MICantibiotic
(§3) An FIC less than ≤0.5 indicates synergy, FIC in the range of >0.5 and ≤1.0 indicates additive activity, FIC in the range of >1 and […] indicates indifference, and a FIC >4 indicates antagonism.
(§4) Minimal inhibition concentration (MIC) were used to determine the toxicity of individual molecules as well as them in combination on several bacterial strains. The individual MIC were determined by the minimal concentration of molecules required to inhibit the growth of the bacterial strain in culture medium (such as Lysogeny broth (LB) and Muller Hinton Broth (MHB)) at 37° C. overnight. The combined MICs were measured by using check point method, where the bacterial strain was cultured in a 96-well plate assay with a series concentrations of COE along the rows and a series concentrations of antibiotic molecules along the columns in culture medium at 37° C. overnight. The preparation of the bacterial strain for the assay was done as known in the art. […] Further information regarding the protocol can be found in Wiegand et al., Natl. Protoc., (2008) 3(2):163-75, Orhan et al., J. of Clin. Microbiol. (2005) 43(1):140-143 and Yan et al., Chem. Sci., (2016) 7(9):5714-5722.

[1] = tested on: HepG2 (ATCC HB-8065) cells; experiment: Cellular cytotoxicity, MTT viability assay; conditions: 24 h incubation, at 128 μg/mL
Procedure: Cellular cytotoxicity was assessed using an MTT viability assay. HepG2 (ATCC HB-8065) cells were seeded at 1×10^4 cells/well in 96 well plates over night at 37° C. in DMEM supplemented with 10% FBS before use. COEs were serially diluted with 2-fold dilution in culture media to afford a concentration ranging from 2 to 128 μg/mL. After 24 h incubation, 10 μL of a 5 mg/mL solution of MTT was added to each well. After incubation for 2-4 h, upon discard of previous media, 100 μL of DMSO as solubilizing solution was added to each well, and absorbance at 570 nm were measured on a plate reader. Percent viability was determined by dividing background-corrected absorbance measurements by background corrected measurements for untreated cells. Formula O, Formula TT and Formula PP were measured to be around 94%, 70% and 103% of cell viability at 128 μg/mL, respectively.

[2] = tested on: Colistin resistant Acinetobactor baumanni; experiment: Susceptibility test: individual MIC and check point FIC
Procedure: as §1, §2, §3, §4

Acinetobactor baumanni = experiment: as above
Procedure: as §1, §2, §3, §4

[3] = tested on: Colistin resistant Pseudomonas aeruginosa; experiment: as above; design: MICantibiotic / MICCOE: unit not given beside the values
Procedure: as §1, §2, §3, §4

[4] = tested on: Pseudomonas aeruginosa 01 (PA01); experiment: as above; design: unit not given beside the values; conditions: antibiotic alone, 37° C. overnight
Procedure: as §1, §2, §3, §4

[5] = COE in combination with Colistin, smallest FIC

Compound `CC1(C)S[C@@H]2[C@H](NC(=O)[C@H](N)c3ccccc3)C(=O)N2[C@H]1C(=O)O` [Ampicilin, ampicillin] has an MICantibiotic (E. Coli K-12; E. Coli K-12) of 4 µg/mL.
`O=C(N[C@H](CO)[C@H](O)c1ccc([N+](=O)[O-])cc1)C(Cl)Cl` [Chloramphenicol, chloramphenicol] gave an MICantibiotic (E. Coli K-12; E. Coli K-12) of 16 µg/mL.
`O=C(O)c1cn(C2CC2)c2cc(N3CCNCC3)c(F)cc2c1=O` [Ciprofloxacin, ciprofloxacin] showed an MICantibiotic (E. Coli K-12; E. Coli K-12) of 0.125 µg/mL.
With `C[N+](C)(C)CCCCCCOc1cc(/C=C/c2ccc(/C=C/c3ccc(/C=C/c4cc(OCCCCCC[N+](C)(C)C)cc(OCCCCCC[N+](C)(C)C)c4)cc3)cc2)cc(OCCCCCC[N+](C)(C)C)c1` [Formula TT] the MICCOE (E. Coli K-12; COE alone, E. Coli K-12) was 1024, the FIC (E. Coli K-12; COE in combination with Chloramphenicol, E. Coli K-12) was 1.0 and the FIC (E. Coli K-12; COE in combination with Penicillin, E. Coli K-12) was 0.53. The FIC (E. Coli K-12; COE in combination with Rifampin, E. Coli K-12) was 0.28, the “antimicrobial effect of combination (in words)” value (“antimicrobial effect” for short) (E. Coli K-12; with rifampin, E. coli K-12) was “significant synergistic antimicrobial effect” and the cell viability [1] was ~70%. For the same compound, the MICCOE ([2]; COE alone) was 256, the FIC [2, 5] was 0.25 and the “antimicrobial effect” value ([2]; with colistin) was “significant synergistic antimicrobial effect”. The MICCOE (Acinetobactor baumanni; COE alone) was 256, the FIC (Acinetobactor baumanni; [5]) was 0.51 and the MICCOE ([3]; COE alone) was 256. For the same compound, the FIC [3, 5] was 0.14 and the “antimicrobial effect” value ([3]; with colistin) was “significant synergistic antimicrobial effect”.
`CO[C@H]1/C=C/O[C@@]2(C)Oc3c(C)c(O)c4c(O)c(c(/C=N/N5CCN(C)CC5)c(O)c4c3C2=O)NC(=O)/C(C)=C\C=C\[C@H](C)[C@H](O)[C@@H](C)[C@@H](O)[C@@H](C)[C@H](OC(C)=O)[C@@H]1C` [Rifampin, rifampin] showed an MICantibiotic (E. Coli K-12; E. Coli K-12) of 32 µg/mL.
With `Cc1cc(NS(=O)(=O)c2ccc(N)cc2)no1` [Sulfamethoxazole, sulfamethoxazole] the MICantibiotic (E. Coli K-12; E. Coli K-12) was 512 µg/mL.
With colistin [reference compound] the MICantibiotic (E. Coli K-12; E. Coli K-12) was 1 µg/mL, the MICantibiotic [4] was 1 and the MICantibiotic ([2]; antibiotic alone) was 512. The MICantibiotic (Acinetobactor baumanni; antibiotic alone) was 256 and the MICantibiotic ([3]; antibiotic alone) was 16.
For penicillin, the MICantibiotic (E. Coli K-12; E. Coli K-12) was 64 µg/mL.
